In doi:10.1101/2025.01.28.635346v1 (bioRxiv, 2025):
Read-outs that look alike come from different tables or passages of the source. Bridge positions count the residues as written; N and C are the ends. Side chains are listed from the residue outwards. Peptide text beside a SMILES is read from it. * marks the point of attachment. Butanoyl(4-(4-I-phenyl)) = O=C(CCCc1ccc(I)cc1)*; PEG2 = NCCOCCOCCC(=O)O

Experiments:
[1] = biological target: integrin αvβ6 (Homo sapiens, UniProt P06756+P18564); assay: ELISA competition assay, integrin αvβ6 binding to LAP
[2] = biological target: integrin αvβ8 (Homo sapiens, UniProt P06756+P26012); assay: ELISA competition assay, integrin αvβ8 binding to LAP
[3] = Pharmacokinetics in female Balb/c mice; assay type: in vivo, mouse
[4] = αvβ6 IC50, ELISA competition vs LAP, mean, n ≥ 3
[5] = Table S3E, IP 10 mg/kg, mouse, animal 1F001
[6] = Table S3E, IP 10 mg/kg, mouse, animal 1F002
[7] = Table S3E, IP 10 mg/kg, mouse, animal 1F003
[8] = Table S3E, IP 10 mg/kg, mouse, animal 1F005
[9] = female, Balb/c, mouse, plasma, ip, 10 mg/kg

Structure (SMILES): CC[C@H](C)[C@@H]1NC(=O)[C@H](CO)NC(=O)CC[C@@H](C(=O)N[C@@H](CCCNC(=N)N)C(=O)NCC(=O)N[C@@H](CC(=O)O)C(=O)N[C@@H](CC(C)C)C(=O)N[C@@H](CCC(N)=O)C(=O)N[C@H](C(=O)N[C@@H](Cc2ccc(O)cc2)C(=O)N[C@@H](Cc2c[nH]c3ccccc23)C(=O)N2CCC[C@H]2C(=O)O)[C@@H](C)O)NC(=O)[C@H](CCCNC(=N)N)NC(=O)[C@H](CC(C)C)NC(=O)CNC(=O)[C@H](CO)NC(=O)[C@H](CC(=O)O)NC(=O)CNC1=O [lassotide 18] (SIGDSGLRERGDLQTYWP-OH; lactam N-9; C-terminus assumed)
- IC50 [1, 4]: 3.2 µM
- IC50 [2]: 2.47 µM

Structure (SMILES): CC[C@H](C)[C@H](NC(=O)[C@H](CC(C)C)NC(=O)[C@H](CC(=O)O)NC(=O)CNC(=O)[C@H](CCCNC(=N)N)NC(=O)[C@H](C)NC(=O)[C@H](Cc1ccccc1)NC(=O)[C@H](Cc1ccc(O)cc1)NC(=O)[C@@H]1CCC(=O)NCC(=O)NCC(=O)N[C@@H](C)C(=O)NCC(=O)N[C@@H](Cc2c[nH]cn2)C(=O)N[C@@H](C(C)C)C(=O)N2CCC[C@H]2C(=O)N1)C(=O)N[C@@H](CO)C(=O)N[C@@H](Cc1ccccc1)C(=O)N[C@@H](Cc1ccc(O)cc1)C(=O)NCC(=O)O [lassotide 19] (GGAGHVPEYFARGDLISFYG-OH; lactam N-8; C-terminus assumed)
- IC50 [1, 4]: 0.066 µM
- IC50 [2]: 0.024 µM

Structure (SMILES): CC[C@H](C)[C@H](NC(=O)[C@H](CC(C)C)NC(=O)[C@H](CC(=O)O)NC(=O)CNC(=O)[C@H](CCCNC(=N)N)NC(=O)[C@@H](NC(=O)[C@H](Cc1ccccc1)NC(=O)[C@H](Cc1ccc(O)cc1)NC(=O)[C@@H]1CCC(=O)NCC(=O)NCC(=O)N[C@@H](CCCCN)C(=O)NCC(=O)N[C@@H](Cc2c[nH]cn2)C(=O)N[C@@H](C(C)C)C(=O)N2CCC[C@H]2C(=O)N1)C(C)C)C(=O)N[C@@H](CO)C(=O)N[C@@H](Cc1ccccc1)C(=O)N[C@@H](Cc1ccc(O)cc1)C(=O)NCC(=O)O [lassotide 28] (GGKGHVPEYFVRGDLISFYG-OH; lactam N-8; C-terminus assumed)
- IC50 [1, 4]: 0.044 µM
- IC50 [2]: 0.048 µM

Structure (SMILES): CC[C@H](C)[C@H](NC(=O)[C@H](CC(C)C)NC(=O)[C@H](CC(=O)O)NC(=O)CNC(=O)[C@H](CCCNC(=N)N)NC(=O)[C@@H](NC(=O)[C@H](Cc1ccccc1)NC(=O)[C@H](Cc1ccc(O)cc1)NC(=O)[C@@H]1CCC(=O)NCC(=O)NCC(=O)N[C@@H](CCC(=O)O)C(=O)NCC(=O)N[C@@H](Cc2c[nH]cn2)C(=O)N[C@@H](C(C)C)C(=O)N2CCC[C@H]2C(=O)N1)C(C)C)C(=O)N[C@@H](CO)C(=O)N[C@@H](Cc1ccccc1)C(=O)N[C@@H](Cc1ccc(O)cc1)C(=O)NCC(=O)O [lassotide 29] (GGEGHVPEYFVRGDLISFYG-OH; lactam N-8; C-terminus assumed)
- IC50 [1, 4]: 0.104 µM
- IC50 [2]: 0.047 µM

Structure (SMILES): CC[C@H](C)[C@H](NC(=O)[C@H](CC(C)C)NC(=O)[C@H](CC(=O)O)NC(=O)CNC(=O)[C@H](CCCNC(=N)N)NC(=O)[C@@H](NC(=O)[C@H](Cc1ccccc1)NC(=O)[C@H](Cc1ccc(O)cc1)NC(=O)[C@@H]1CCC(=O)NCC(=O)NCC(=O)N[C@@H](Cc2c[nH]cn2)C(=O)NCC(=O)N[C@@H](Cc2c[nH]cn2)C(=O)N[C@@H](C(C)C)C(=O)N2CCC[C@H]2C(=O)N1)C(C)C)C(=O)N[C@@H](CO)C(=O)N[C@@H](Cc1ccccc1)C(=O)N[C@@H](Cc1ccc(O)cc1)C(=O)NCC(=O)O [lassotide 31] (GGHGHVPEYFVRGDLISFYG-OH; lactam N-8; C-terminus assumed)
- IC50 [1, 4]: 0.021 µM
- IC50 [2]: 0.027 µM

Structure (SMILES): CC[C@H](C)[C@H](NC(=O)[C@H](CC(C)C)NC(=O)[C@H](CC(=O)O)NC(=O)CNC(=O)[C@H](CCCNC(=N)N)NC(=O)[C@@H](NC(=O)[C@H](Cc1ccccc1)NC(=O)[C@H](Cc1ccc(O)cc1)NC(=O)[C@@H]1CCC(=O)NCC(=O)NCC(=O)N[C@@H](CC(C)C)C(=O)NCC(=O)N[C@@H](Cc2c[nH]cn2)C(=O)N[C@@H](C(C)C)C(=O)N2CCC[C@H]2C(=O)N1)C(C)C)C(=O)N[C@@H](CO)C(=O)N[C@@H](Cc1ccccc1)C(=O)N[C@@H](Cc1ccc(O)cc1)C(=O)NCC(=O)O [lassotide 32] (GGLGHVPEYFVRGDLISFYG-OH; lactam N-8; C-terminus assumed)
- IC50 [1, 4]: 0.053 µM
- IC50 [2]: 0.032 µM

Structure (SMILES): CC[C@H](C)[C@@H]1NC(=O)[C@H](CO)NC(=O)CNC(=O)[C@H](CCCNC(=N)N)NC(=O)CNC(=O)CNC(=O)CC[C@@H](C(=O)N[C@@H](Cc2ccc(O)cc2)C(=O)N[C@@H](Cc2ccccc2)C(=O)N[C@@H](CCC(N)=O)C(=O)N[C@@H](CCCNC(=N)N)C(=O)NCC(=O)N[C@@H](CC(=O)O)C(=O)N[C@@H](CC(C)C)C(=O)N[C@@H](CCC(N)=O)C(=O)N[C@@H](CO)C(=O)N[C@@H](Cc2ccccc2)C(=O)N[C@@H](Cc2ccc(O)cc2)C(=O)NCC(=O)O)NC(=O)[C@@H]2CCCN2C1=O [lassotide 44] (GGRGSIPEYFQRGDLQSFYG-OH; lactam N-8; C-terminus assumed)
- IC50 [1]: 0.0014 µM

Structure (SMILES): CC[C@H](C)[C@H](NC(=O)[C@H](CC(C)C)NC(=O)[C@H](CC(=O)O)NC(=O)CNC(=O)[C@H](CCCNC(=N)N)NC(=O)[C@@H](NC(=O)[C@H](Cc1ccccc1)NC(=O)[C@H](Cc1ccc(O)cc1)NC(=O)[C@@H]1CCC(=O)NCC(=O)NCC(=O)N[C@@H](CCCCNC(=O)CCOCCOCCNC(=O)CCCc2ccc(I)cc2)C(=O)NCC(=O)N[C@@H](Cc2c[nH]cn2)C(=O)N[C@@H](C(C)C)C(=O)N2CCC[C@H]2C(=O)N1)C(C)C)C(=O)N[C@@H](CO)C(=O)N[C@@H](Cc1ccccc1)C(=O)N[C@@H](Cc1ccc(O)cc1)C(=O)N[C@@H](CCCCNC(=O)CCOCCOCCNC(=O)CCCc1ccc(I)cc1)C(=O)O [lassotide 52] (GGK([PEG2-Butanoyl(4-(4-I-phenyl))])GHVPEYFVRGDLISFYK([PEG2-Butanoyl(4-(4-I-phenyl))])-OH; lactam N-8)
- further increase in half-life ([3]; 52 vs 47, 10 mg/kg IP, mice): 4.4 fold
- Plasma Concentration ([3]; IP 10 mg/kg, 1.0 h, animal 1F001): 31600 ng/mL
- Plasma Concentration ([3]; IP 10 mg/kg, 1.0 h, animal 1F002): 21000 ng/mL
- Plasma Concentration ([3]; IP 10 mg/kg, 1.0 h, animal 1F003): 36300 ng/mL
- Plasma Concentration ([3]; IP 10 mg/kg, 1.0 h, animal 1F005): 34200 ng/mL
- Plasma Concentration ([3]; IP 10 mg/kg, 2.0 h, animal 1F001): 50800 ng/mL
- Plasma Concentration ([3]; IP 10 mg/kg, 2.0 h, animal 1F002): 35000 ng/mL
- Plasma Concentration ([3]; IP 10 mg/kg, 2.0 h, animal 1F003): 53100 ng/mL
- Plasma Concentration ([3]; IP 10 mg/kg, 2.0 h, animal 1F005): 40000 ng/mL
- Plasma Concentration ([3]; IP 10 mg/kg, 4.0 h, animal 1F001): 54500 ng/mL
- Plasma Concentration ([3]; IP 10 mg/kg, 4.0 h, animal 1F002): 51100 ng/mL
- Plasma Concentration ([3]; IP 10 mg/kg, 4.0 h, animal 1F003): 59300 ng/mL
- Plasma Concentration ([3]; IP 10 mg/kg, 4.0 h, animal 1F005): 43400 ng/mL
- Plasma Concentration ([3]; IP 10 mg/kg, 8.0 h, animal 1F001): 45300 ng/mL
- Plasma Concentration ([3]; IP 10 mg/kg, 8.0 h, animal 1F002): 43800 ng/mL
- Plasma Concentration ([3]; IP 10 mg/kg, 8.0 h, animal 1F003): 51000 ng/mL
- Plasma Concentration ([3]; IP 10 mg/kg, 8.0 h, animal 1F005): 35200 ng/mL
- Plasma Concentration ([3]; IP 10 mg/kg, 12 h, animal 1F001): 37900 ng/mL
- Plasma Concentration ([3]; IP 10 mg/kg, 12 h, animal 1F002): 43800 ng/mL
- Plasma Concentration ([3]; IP 10 mg/kg, 12 h, animal 1F003): 43800 ng/mL
- Plasma Concentration ([3]; IP 10 mg/kg, 12 h, animal 1F005): 30500 ng/mL
- Plasma Concentration ([3]; IP 10 mg/kg, 24 h, animal 1F001): 22500 ng/mL
- Plasma Concentration ([3]; IP 10 mg/kg, 24 h, animal 1F002): 24300 ng/mL
- Plasma Concentration ([3]; IP 10 mg/kg, 24 h, animal 1F003): 34800 ng/mL
- Plasma Concentration ([3]; IP 10 mg/kg, 24 h, animal 1F005): 19900 ng/mL
- Plasma Concentration ([3]; IP 10 mg/kg, 36 h, animal 1F001): 16100 ng/mL
- Plasma Concentration ([3]; IP 10 mg/kg, 36 h, animal 1F002): 17400 ng/mL
- Plasma Concentration ([3]; IP 10 mg/kg, 36 h, animal 1F003): 22000 ng/mL
- Plasma Concentration ([3]; IP 10 mg/kg, 36 h, animal 1F005): 13400 ng/mL
- Plasma Concentration ([3]; IP 10 mg/kg, 48 h, animal 1F001): 11200 ng/mL
- Plasma Concentration ([3]; IP 10 mg/kg, 48 h, animal 1F002): 12400 ng/mL
- Plasma Concentration ([3]; IP 10 mg/kg, 48 h, animal 1F003): 13200 ng/mL
- Plasma Concentration ([3]; IP 10 mg/kg, 48 h, animal 1F005): 7330 ng/mL
- AUClast [3, 5]: 1290 µg·h/mL
- CL/F [3, 5]: 0.104 mL/min/kg
- Cmax [3, 5]: 54500 ng/mL
- Tmax [3, 5]: 4.0 h
- Vz/F [3, 5]: 0.179 L/kg
- t1/2 [3, 5]: 20 h
- AUClast [3, 6]: 1330 µg·h/mL
- CL/F [3, 6]: 0.0981 mL/min/kg
- Cmax [3, 6]: 51100 ng/mL
- Tmax [3, 6]: 4.0 h
- Vz/F [3, 6]: 0.176 L/kg
- t1/2 [3, 6]: 21 h
- AUClast [3, 7]: 1610 µg·h/mL
- CL/F [3, 7]: 0.0829 mL/min/kg
- Cmax [3, 7]: 59300 ng/mL
- Tmax [3, 7]: 4.0 h
- Vz/F [3, 7]: 0.151 L/kg
- t1/2 [3, 7]: 21 h
- AUClast [3, 8]: 1050 µg·h/mL
- CL/F [3, 8]: 0.134 mL/min/kg
- Cmax [3, 8]: 43400 ng/mL
- Tmax [3, 8]: 4.0 h
- Vz/F [3, 8]: 0.21 L/kg
- t1/2 [3, 8]: 18 h
- Tmax ([3]; Table S3E: IP 10 mg/kg, female Balb/c mice, Mean N=4): 4.00 h
- AUC(0-t) [3, 9]: 1320 µg·h/mL
- CL/F [3, 9]: 0.105 mL/min/kg
- Cmax [3, 9]: 52100 ng/mL
- Tmax [3, 9]: 4 h
- Vd/F [3, 9]: 0.179 L/kg
- half-life [3, 9]: 20 h
- level at 1 h [3, 9]: 30800 ng/mL
- level at 2 h [3, 9]: 44700 ng/mL
- level at 4 h [3, 9]: 52100 ng/mL
- level at 8 h [3, 9]: 43800 ng/mL
- level at 12 h [3, 9]: 39000 ng/mL
- level at 24 h [3, 9]: 25400 ng/mL
- level at 36 h [3, 9]: 17200 ng/mL
- level at 48 h [3, 9]: 11000 ng/mL
